Test: Analysis Method 8: ultraviolet ray transmittance on surgical tape
Settings: wave-length of 310 nm; applied amounts differ per sample
Protocol: A measuring sample was applied on a surgical tape (TRANSPORE TAPE, manufactured by 3M Corp.), this was irradiated with a ultraviolet ray, and the amount of the transmitted light was measured by a SPF analyzer, (UV-1000S, manufactured by LABSPHERE Corp., US). The numerical value in the examples is an average of 40 values. The amount of the sample applied on a surgical tape is 2 μl/cm^2 and a certain amount when measuring SPF value and ultraviolet ray transmittance, respectively.

CCCCC(CC)COC(=O)C=Cc1ccc(OC)cc1 (stereo not shown) [2-ethylhexyl p-methoxy-cinnamate, 2-ethylhexyl p-methoxycinnamate]
Ultraviolet ray transmittance: 2.2
